# Measured values published in patent US11149036B2, “3-(1H-pyrazol-4-yl)pyridine allosteric modulators of the M4 muscarinic acetylcholine receptor” (Merck Sharp & Dohme Corp., priority 2017, dated 2021).
# pEC50: −log10 of the molar value.
# Molecular target: T1, human M4 muscarinic acetylcholine receptor (Homo sapiens, UniProt P08173)
# T1 construct: expressed in transfected cells; host or cells: CHO-K1
# T1 sequence (P08173 1-479): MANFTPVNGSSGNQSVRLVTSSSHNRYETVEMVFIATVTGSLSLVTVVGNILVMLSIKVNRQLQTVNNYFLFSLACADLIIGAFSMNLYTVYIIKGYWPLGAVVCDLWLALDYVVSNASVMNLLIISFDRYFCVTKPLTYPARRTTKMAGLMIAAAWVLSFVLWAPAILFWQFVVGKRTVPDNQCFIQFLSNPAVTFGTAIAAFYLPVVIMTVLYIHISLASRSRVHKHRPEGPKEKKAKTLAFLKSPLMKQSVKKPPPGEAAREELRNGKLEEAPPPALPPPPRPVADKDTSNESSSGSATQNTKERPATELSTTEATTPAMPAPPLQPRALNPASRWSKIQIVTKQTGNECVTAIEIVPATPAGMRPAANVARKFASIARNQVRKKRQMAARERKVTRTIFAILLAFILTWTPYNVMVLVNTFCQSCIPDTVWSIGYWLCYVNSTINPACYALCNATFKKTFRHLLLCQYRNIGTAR
# Test: human FLIPR-based M4 PAM assay (CHO-K1 cells with human M4 receptor and Gaqi5, calcium dye fluorescence)
# Assay type: cell-based
# Settings: inflection point (IP) of dose response curve, acetylcholine added at 20% of maximum response, read-out: M4 FLIPPR Hu IP
# Method: (§1) In a typical experiment the M4 muscarinic acetylcholine receptor modulating activity of the compounds of the present invention was determined in accordance with the following experimental method. CHO-K1 cells stably transfected with human M4 receptor and chimeric G-protein Gaqi5 (Coward P, et al., Analytical Biochemistry, 270:242-248 (1999)) are thawed from liquid N2 storage, resuspended in growth medium, plated in black, clear bottom 384 well plates, and incubated 16-20 hours at 37° C., 5% CO2. On the day of assay, growth medium is removed, the cells are washed 2 times with wash buffer, and cells are incubated in dye loading buffer at 37° C., 5% CO2 for ˜1 hour. Following dye loading the cell plates are placed in a FLIPR Tetra instrument and while monitoring dye fluorescence (excitation 470-495 […]), 10 uL of test substance at increasing concentrations is added, and fluorescence values are recorded for 4 min. Next, 10 uL of acetylcholine is added (final concentration calculated so as to achieve 20% of the maximum acetycholine response), and the fluorescence reading is continued for 3.5 min. In some cases, a third addition of acetylcholine (final concentration calculated to achieve 70% of the maximal acetylcholine response) is performed. The resulting dose response curves are fit to a 4 parameter logistic equation and the final result is determined as the inflection point (IP) of the curve
# as §1, with “CHO-K1” for “In a typical experiment the M4 muscarinic acetylcholine receptor modulating activity of the compounds of the present invention was determined in accordance with the following experimental method. CHO-K1”, “Gaqi5” for “Gaqi5 (Coward P, et al., Analytical Biochemistry, 270:242-248 (1999))”, “performed.” for “performed. The resulting dose response curves are fit to a 4 parameter logistic equation and the final result is determined as the inflection point (IP) of the curve”
row,Compound,pEC50
1,"Cc1ccc(-c2cnn(CC3C[C@@H](F)[C@@H](F)C3)c2)c(-c2ccc3cccnc3c2)n1 (mixture of isomers) [Example 27, 7-(3-(1-(((3R,4S and 3S,4R)-3,4-difluorocyclopentyl)methyl)-1H-pyrazol-4-yl)-6-methylpyridin-2-yl)quinoline (+/−)]",7.19
2,"Cc1ccc(-c2cnn(C[C@@H]3CC[C@H](F)C3)c2)c(-c2ccc3cccnc3c2)n1 (racemic) [Example 31, 7-(3-(1-(((1R,3S and 1S,3R)-3-fluorocyclopentyl)methyl)-1H-pyrazol-4-yl)-6-methylpyridin-2-yl)quinoline]",7.54
3,"Cc1ccc(-c2cnn(CC3CCC(F)(F)C3)c2)c(-c2ccc3cccnc3c2)n1 (single isomer, unassigned) [Example 129, (S or R)-7-(3-(1-((3,3-difluorocyclopentyl)methyl)-1H-pyrazol-4-yl)-6-methylpyridin-2-yl)quinoline]",7.66
4,"Cc1ccc(-c2cnn(C[C@H]3CC[C@H](F)C3)c2)c(-c2ccc3cccnc3c2)n1 (single isomer, unassigned) [Example 131, 7-(3-(1-(((1S,3S) or (1R,3R)-3-fluorocyclopentyl)methyl)-1H-pyrazol-4-yl)-6-methylpyridin-2-yl)quinoline]",7.51
5,"Cc1ccc(-c2cnn(C[C@@H]3CC[C@H](F)C3)c2)c(-c2ccc3cccnc3c2)n1 (single isomer, unassigned) [Example 133, 7-(3-(1-(((1R,3S) or (1S,3R)-3-fluorocyclopentyl)methyl)-1H-pyrazol-4-yl)-6-methylpyridin-2-yl)quinoline]",7.77
6,"Cc1ccc(-c2cnn(C[C@H]3CC[C@@H](F)C3)c2)c(-c2ccc3cccnc3c2)n1 (single isomer, unassigned) [Example 134, 7-(3-(1-(((1S,3R) or (1R,3S)-3-fluorocyclopentyl)methyl)-1H-pyrazol-4-yl)-6-methylpyridin-2-yl)quinoline]",7.59
7,"COc1cc2ccc(-c3nc(C)ccc3-c3cnn(CC4(C)CCC(=O)C4)c3)cc2nn1 (single isomer, unassigned) [Example 148, (S or R)-3-((4-(2-(3-methoxycinnolin-7-yl)-6-methylpyridin-3-yl)-1H-pyrazol-1-yl)methyl)-3-methylcyclopentan-1-one]",7.17
8,"COc1cc2ccc(-c3nc(C)ccc3-c3cnn(CC4(C)CCC(F)(F)C4)c3)cc2nn1 (single isomer, unassigned) [Example 150, (R or S)-7-(3-(1-((3,3-difluoro-1-methylcyclopentyl)methyl)-1H-pyrazol-4-yl)-6-methylpyridin-2-yl)-3-methoxycinnoline]",7.66
9,"N#Cc1ccc(-c2cnn(CC3CCC(F)C3)c2)c(-c2ccc3cccnc3c2)n1 (single isomer, unassigned) [compound 146, 5-(1-(((1R,3S) or (1S,3R)-3-fluoro-cyclopentyl)methyl)-1H-pyrazol-4-yl)-6-(quinolin-7-yl)picolinonitrile]",7.30
10,"Cc1ccc(-c2cnn(CC3(F)CCCC3)c2)c(-c2ccc3c(c2)C(=O)N(C)C3)n1 [Example 1, 6-(3-(1-((1-fluorocyclopentyl)methyl)-1H-pyrazol-4-yl)-6-methylpyridin-2-yl)-2-methylisoindolin-1-one]",7.77
11,"Cc1cn2ccc(-c3ncccc3-c3cnn(CC4C[C@@H](F)[C@H](F)C4)c3)cc2n1 [Example 5, 7-(3-(1-(((3R,4R)-3,4-difluorocyclopentyl)methyl)-1H-pyrazol-4-yl)pyridin-2-yl)-2-methylimidazo[1,2-a]pyridine]",7.06
12,"Cc1ccc(-c2nc(C)ccc2-c2cnn(CC3CCCC3)c2)cc1 [Example 6, 3-(1-(cyclopentylmethyl)-1H-pyrazol-4-yl)-6-methyl-2-(p-tolyl)pyridine]",7.14
13,"COc1cc2ccc(-c3nc(C)ccc3-c3cnn(CC4CCCC4)c3F)cc2nn1 [Example 12, 7-(3-(1-(cyclopentylmethyl)-5-fluoro-1H-pyrazol-4-yl)-6-methylpyridin-2-yl)-3-methoxycinnoline]",8.15

# Continued by rising pEC50, values first:
row,pEC50,Compound
1,6.70,"COc1cc2ccc(-c3nc(C)ccc3-c3cnn(CC4(C)CCC(=O)C4)c3)cc2nn1 (single isomer, unassigned; isomer a) [Example 149, 3-((4-(2-(3-methoxycinnolin-7-yl)-6-methylpyridin-3-yl)-1H-pyrazol-1-yl)methyl)-3-methylcyclopentan-1-one isomer A]"
2,7.03,"Cc1ccc(-c2cnn(CC3CCCC3)c2)c(-c2cnc3c(c2)ncn3C)n1 [Example 7, 6-(3-(1-(cyclopentylmethyl)-1H-pyrazol-4-yl)-6-methylpyridin-2-yl)-3-methyl-3H-imidazo[4,5-b]pyridine]"
3,7.20,"Cc1cn2ccc(-c3ncccc3-c3cnn(CC4C[C@H](F)[C@@H](F)C4)c3)cc2n1 [Example 4, 7-(3-(1-(((3S,4S)-3,4-difluorocyclopentyl)methyl)-1H-pyrazol-4-yl)pyridin-2-yl)-2-methylimidazo[1,2-a] pyridine]"
4,7.27,"Cc1ccc(-c2cnn(CC3CCCC3)c2)c(-c2ccc(CCCO)cc2)n1 [Example 8, 3-(4-(3-(1-(cyclopentylmethyl)-1H-pyrazol-4-yl)-6-methylpyridin-2-yl)phenyl)propan-1-ol]"
5,7.30,"Cc1ccc(-c2cnn(CC3CCCC3)c2)c(-c2ccc(C(O)C(F)(F)F)cc2)n1 (centres unmarked) [Example 9, 1-(4-(3-(1-(cyclopentylmethyl)-1H-pyrazol-4-yl)-6-methylpyridin-2-yl)phenyl)-2,2,2-trifluoroethan-1-ol]"
6,7.34,"Cc1ccc(-c2cnn(CC3CCCC3)c2)c(-c2ccc3oc(C)nc3c2)n1 [Example 11, 5-(3-(1-(cyclopentylmethyl)-1H-pyrazol-4-yl)-6-methylpyridin-2-yl)-2-methylbenzo[d]oxazole]"
7,7.41,"Cc1ccc(-c2cnn(CC3C[C@H](F)[C@@H](F)C3)c2)c(-c2ccc3cccnc3c2)n1 (racemic) [Example 29, 7-(3-(1-(((3S,4S and 3R,4R)-3,4-difluorocyclopentyl)methyl)-1H-pyrazol-4-yl)-6-methylpyridin-2-yl)quinoline]"
8,7.49,"Cc1ccc(-c2cnn(C[C@H]3CC[C@H](F)C3)c2)c(-c2ccc3cccnc3c2)n1 (racemic) [Example 30, 7-(3-(1-(((1S,3S and 1R,3R)-3-fluorocyclopentyl)methyl)-1H-pyrazol-4-yl)-6-methylpyridin-2-yl)quinoline]"
9,7.52,"COc1cc2ccc(-c3nc(C)ccc3-c3cnn(CC4(C)CCC(F)(F)C4)c3)cc2nn1 (single isomer, unassigned; isomer b) [Example 151, (S or R)-7-(3-(1-((3,3-difluoro-1-methylcyclo-pentyl)methyl)-1H-pyrazol-4-yl)-6-methylpyridin-2-yl)-3-methoxycinnoline isomer B]"
10,7.60,"Cc1ccc(-c2cnn(CC3CCC(F)(F)C3)c2)c(-c2ccc3cccnc3c2)n1 (single isomer, unassigned) [Example 130, (R or S)-7-(3-(1-((3,3-difluorocyclopentyl)methyl)-1H-pyrazol-4-yl)-6-methylpyridin-2-yl)quinoline]"
11,7.60,"COc1cnc2cc(-c3nc(C)ccc3-c3cnn(CC4(C)CCCC4)c3)ccc2c1 [Example 10, 3-methoxy-7-(6-methyl-3-(1-((1-methylcyclopentyl)methyl)-1H-pyrazol-4-yl)pyridin-2-yl)quinoline]"
12,7.77,"Cc1ccc(-c2cnn(C[C@@H]3CC[C@@H](F)C3)c2)c(-c2ccc3cccnc3c2)n1 (single isomer, unassigned) [Example 132, 7-(3-(1-(((1R,3R) or (1S,3S)-3-fluorocyclopentyl)methyl)-1H-pyrazol-4-yl)-6-methylpyridin-2-yl)quinoline]"
13,7.92,"Cc1cn2ccc(-c3nc(C#N)ccc3-c3cnn(CC4(F)CCCC4)c3)cc2n1 [Example 3, 5-(1-((1-fluorocyclopentyl)methyl)-1H-pyrazol-4-yl)-6-(2-methylimidazo[1,2-a]pyridin-7-yl)picolinonitrile]"
